Like-named read-outs stand apart in the source and are kept apart here.
What was measured:
[1] = system: recombinant wt SARS-CoV-2-mCherry (rWA1); assay: microbe, parasite or virus in culture; assay type: cell-based
[2] = system: wild-type VSV-G-3CL^pro-L; assay: microbe, parasite or virus in culture; assay type: cell-based

## CC(C)(C)[C@H](NC(=O)C(F)(F)F)C(=O)N1C[C@H]2[C@@H]([C@H]1C(=O)N[C@H](C#N)C[C@@H]1CCNC1=O)C2(C)C [Nirmatrelvir, nirmatrelvir]
[1]; Severe acute respiratory syndrome coronavirus 2, read-out: IC50 48 hpi
  IC50: 8.68 nM
[1]; Severe acute respiratory syndrome coronavirus 2, read-out: IC50 72 hpi
  IC50: 8.51 nM
[2]
  replication inhibited: 10^6 fold
[2]; Vesicular stomatitis virus, BHK-21, 24 h, read-out: half maximal inhibitor concentration (IC50) of virus replication
  IC50: ~185 nM

Source: paper PMC9765458 (Science Translational Medicine, 2022)
